Experimental data from patent publication US20090312280A1.

How the values were obtained:
Bmx = Bmx (Homo sapiens, UniProt P51813); experiment: biochemical kinase screening assay
[1] = test system: G2 checkpoint induced by camptothecin (Histone H3 phosphorylation on Ser10); experiment: Histone H3 phosphorylation assay (G2 checkpoint abrogation); format: cell-based; conditions: read-out: EC50, abrogation of G2 checkpoint (increase in Histone H3 phosphorylation on Ser10)
Lck = Lck (Homo sapiens, UniProt P06239); experiment: biochemical
[2] = maximum tolerated dose by mean body weight loss; conditions: in vivo
TrkA = TrkA (Homo sapiens, UniProt P04629); experiment: biochemical kinase screening assay
PAR-1Ba = PAR-1Ba (Homo sapiens, UniProt Q7KZI7); experiment: biochemical kinase screening assay
PDK1 = PDK1 (Homo sapiens, UniProt O15530); experiment: biochemical kinase screening assay
Axl = Axl (Homo sapiens, UniProt P30530); experiment: biochemical kinase screening assay
A431 tumor xenografts = experiment: in vivo radio sensitizing study, A431 xenograft; parameters: species or system mice; conditions: for Normalized Tumor Growth Delay: versus drug alone; for Tumor Growth Delay: versus vehicle control
Text: Female Balb/c nude mice (Age 6 weeks) were inoculated on the right hind limb with 3×10^6 A431 cells in PBS and allowed the tumor to grow to a mean tumor volume ˜100 mm^3. The mice were randomized into groups of 10 animals each group.
The unanaesthetized mice were then subjected to radiation. Radiation was delivered using a 6 MeV high dose rate electron beam from a Varian 2100 Linear Accelerator (Palo Alto, Calif.). The dose rate used was 20 Gy/min. The depth-dose characteristics of the electron beam were such that dose uniformity to within ±5 % was obtained over a 10 mm depth of tissue. This was sufficient to cover all tumor irradiated. The tumor was irradiated though a 25 mm square collimator cut from 3 mm thick lead sheet attached to a 6 mm thick Perspex sheet. The separation between the tumor and the lower (Perspex) side of the surface collimator was approximately 25 mm. The apparatus was supported on a plate heated to 37° C. in order to reduce the effects of heat loss in the mice. Radiation doses were calculated and delivered by a senior radiation physicist. Radiotherapy was given as described above on Days 0-4 as 2, 3 or 4 Gy daily fractions.
The solution was prepared immediately prior to dosing and (15 mg/kg) was administered by intraperitoneal injection at 15 mg/kg on Days 0-4 immediately following radiotherapy. The above solution that contains no Compound 1 is considered as the “drug vehicle” or “vehicle”. Drug vehicle was administered at 0.1 ml/10 g body weight on the same schedule.
Each group of mice were treated with Compound 1 only, radiation only, or the combination of Compound 1 and radiation. Animals were sacrificed when Tumor Volume Ratio (TVR) reached or exceeded 4 or if the mouse had lost more than 15% of its baseline body weight at Day 0. Tumor Volume Ratio is defined as the ratio between the tumors volume at a particular time and the baseline tumor volume, which is the tumor volume at Day 0.
Tumor volume was measured three times weekly from day 0 to day 11 and even further to day 23. Tumor volume was measured using electronic calipers and calculated as length/2×width^2. The mean tumor volume was calculated for each group of mice.
Tumor growth delay is defined as the median time in days for tumors to reach a TVR of 4 minus time for vehicle control tumors to reach the same size. Normalized growth delay is defined as the time in days for tumors in combination treated mice to reach TVR of 4 minus time in days for tumors in drug alone treated mice to reach the same size. Enhancement ratio is defined as normalized tumor growth delay in mice treated with drug and radiation divided by tumor growth delay in mice treated with radiation alone.

Chk2 = Chk2 (Homo sapiens, UniProt O96017); experiment: biochemical kinase screening assay; conditions: read-out: IC50 (nM), given as Ki
P70S6K = P70S6K (Homo sapiens, UniProt P23443); experiment: biochemical kinase screening assay
Rsk3 = Rsk3 (Homo sapiens, UniProt Q15349); experiment: biochemical
MDA-MB-231 (Breast) = experiment: cell survival / MTT combination cytotoxicity; format: cell-based, human; conditions: Homo sapiens
Rsk1 = Rsk1 (Homo sapiens, UniProt Q15418); experiment: biochemical kinase screening assay
Flt3 = Flt3 (Homo sapiens, UniProt P36888); experiment: biochemical kinase screening assay
PC-3 (Prostate) = experiment: cell survival / MTT combination cytotoxicity; format: cell-based, human; conditions: Homo sapiens
Fgr = Fgr (Homo sapiens, UniProt P09769); experiment: biochemical kinase screening assay
Fms = Fms (Homo sapiens, UniProt P07333); experiment: biochemical kinase screening assay
[3] = Compound 1 15 mg/kg IP plus Radiation (2 Gy × 5)
[4] = Compound 1 15 mg/kg IP plus Radiation (3 Gy × 5)
[5] = Compound 1 15 mg/kg IP plus Radiation (4 Gy × 5)
[6] = Compound 1 alone, 15 mg/kg IP Days 0-4

Chain of Flt3 (P36888 27-993): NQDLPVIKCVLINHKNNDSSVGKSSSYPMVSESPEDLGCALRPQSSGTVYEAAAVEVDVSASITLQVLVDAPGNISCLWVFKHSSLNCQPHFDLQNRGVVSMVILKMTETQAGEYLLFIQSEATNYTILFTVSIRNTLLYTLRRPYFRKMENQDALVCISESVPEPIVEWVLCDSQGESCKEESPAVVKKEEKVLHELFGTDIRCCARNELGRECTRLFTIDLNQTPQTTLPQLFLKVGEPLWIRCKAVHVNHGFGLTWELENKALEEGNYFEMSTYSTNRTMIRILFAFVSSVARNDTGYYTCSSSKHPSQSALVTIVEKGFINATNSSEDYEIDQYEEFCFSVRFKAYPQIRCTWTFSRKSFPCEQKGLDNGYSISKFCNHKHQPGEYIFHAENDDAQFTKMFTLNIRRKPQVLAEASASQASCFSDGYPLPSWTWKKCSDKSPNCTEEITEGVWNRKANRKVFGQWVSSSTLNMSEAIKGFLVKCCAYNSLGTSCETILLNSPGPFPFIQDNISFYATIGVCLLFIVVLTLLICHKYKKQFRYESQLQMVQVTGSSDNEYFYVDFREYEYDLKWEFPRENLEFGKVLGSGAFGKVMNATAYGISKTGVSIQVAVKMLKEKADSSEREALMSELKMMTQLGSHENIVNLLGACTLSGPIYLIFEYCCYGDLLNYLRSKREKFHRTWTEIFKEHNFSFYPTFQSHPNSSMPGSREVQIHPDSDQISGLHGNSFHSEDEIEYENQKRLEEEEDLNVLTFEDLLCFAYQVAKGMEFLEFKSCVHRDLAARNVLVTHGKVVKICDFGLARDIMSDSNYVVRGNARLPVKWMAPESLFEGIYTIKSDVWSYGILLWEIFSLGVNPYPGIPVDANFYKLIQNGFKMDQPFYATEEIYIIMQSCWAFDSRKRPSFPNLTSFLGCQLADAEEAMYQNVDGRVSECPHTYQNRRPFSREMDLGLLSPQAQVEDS
Chain of PDK1 (O15530 whole entry): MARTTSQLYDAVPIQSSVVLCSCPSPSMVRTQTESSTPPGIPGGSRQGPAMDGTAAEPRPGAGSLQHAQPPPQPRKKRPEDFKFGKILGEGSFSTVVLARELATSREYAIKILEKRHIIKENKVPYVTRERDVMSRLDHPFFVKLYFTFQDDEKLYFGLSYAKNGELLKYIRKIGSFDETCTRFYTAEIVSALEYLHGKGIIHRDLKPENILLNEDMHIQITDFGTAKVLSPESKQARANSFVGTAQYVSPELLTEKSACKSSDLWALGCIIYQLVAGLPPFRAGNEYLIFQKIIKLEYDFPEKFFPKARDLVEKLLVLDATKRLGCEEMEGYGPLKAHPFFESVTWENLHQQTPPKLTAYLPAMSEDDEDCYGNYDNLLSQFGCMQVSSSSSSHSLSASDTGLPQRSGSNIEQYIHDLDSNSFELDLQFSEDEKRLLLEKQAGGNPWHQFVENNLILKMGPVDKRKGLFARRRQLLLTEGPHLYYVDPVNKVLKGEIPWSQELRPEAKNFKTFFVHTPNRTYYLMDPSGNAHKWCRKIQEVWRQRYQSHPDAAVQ
Chain of Rsk1 (Q15418 whole entry): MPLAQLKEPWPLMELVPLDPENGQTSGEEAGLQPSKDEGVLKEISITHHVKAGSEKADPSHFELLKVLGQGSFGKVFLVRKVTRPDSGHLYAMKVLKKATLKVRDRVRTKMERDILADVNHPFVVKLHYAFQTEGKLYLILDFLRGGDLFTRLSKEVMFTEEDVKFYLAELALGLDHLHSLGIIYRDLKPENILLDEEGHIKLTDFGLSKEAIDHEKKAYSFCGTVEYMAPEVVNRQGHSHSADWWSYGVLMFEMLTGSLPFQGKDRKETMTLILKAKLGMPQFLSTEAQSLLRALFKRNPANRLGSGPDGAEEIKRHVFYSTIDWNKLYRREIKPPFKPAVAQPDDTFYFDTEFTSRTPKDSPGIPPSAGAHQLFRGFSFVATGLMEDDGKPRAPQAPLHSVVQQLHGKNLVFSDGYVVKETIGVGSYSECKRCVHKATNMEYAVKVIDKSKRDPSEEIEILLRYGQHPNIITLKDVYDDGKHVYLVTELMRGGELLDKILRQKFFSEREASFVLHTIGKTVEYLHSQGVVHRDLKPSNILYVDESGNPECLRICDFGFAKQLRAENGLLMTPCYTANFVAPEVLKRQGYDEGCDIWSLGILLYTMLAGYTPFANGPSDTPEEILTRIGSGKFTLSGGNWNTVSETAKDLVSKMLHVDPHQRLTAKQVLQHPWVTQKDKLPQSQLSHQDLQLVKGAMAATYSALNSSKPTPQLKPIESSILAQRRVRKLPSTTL
Chain of Fgr (P09769 whole entry): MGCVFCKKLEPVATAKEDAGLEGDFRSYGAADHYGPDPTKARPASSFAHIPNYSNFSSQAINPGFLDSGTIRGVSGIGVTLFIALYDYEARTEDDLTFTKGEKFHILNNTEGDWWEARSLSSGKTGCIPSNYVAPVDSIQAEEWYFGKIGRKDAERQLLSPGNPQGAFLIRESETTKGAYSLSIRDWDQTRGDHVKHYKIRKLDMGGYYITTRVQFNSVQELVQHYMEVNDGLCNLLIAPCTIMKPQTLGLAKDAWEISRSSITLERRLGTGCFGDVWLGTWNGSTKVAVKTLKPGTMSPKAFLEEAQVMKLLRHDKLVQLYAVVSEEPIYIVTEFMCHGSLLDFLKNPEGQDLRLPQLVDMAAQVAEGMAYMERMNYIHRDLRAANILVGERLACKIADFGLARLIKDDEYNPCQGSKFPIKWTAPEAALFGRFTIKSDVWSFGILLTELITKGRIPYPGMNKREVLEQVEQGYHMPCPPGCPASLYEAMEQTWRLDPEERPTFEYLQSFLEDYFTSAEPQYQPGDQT
Chain of Axl (P30530 26-894): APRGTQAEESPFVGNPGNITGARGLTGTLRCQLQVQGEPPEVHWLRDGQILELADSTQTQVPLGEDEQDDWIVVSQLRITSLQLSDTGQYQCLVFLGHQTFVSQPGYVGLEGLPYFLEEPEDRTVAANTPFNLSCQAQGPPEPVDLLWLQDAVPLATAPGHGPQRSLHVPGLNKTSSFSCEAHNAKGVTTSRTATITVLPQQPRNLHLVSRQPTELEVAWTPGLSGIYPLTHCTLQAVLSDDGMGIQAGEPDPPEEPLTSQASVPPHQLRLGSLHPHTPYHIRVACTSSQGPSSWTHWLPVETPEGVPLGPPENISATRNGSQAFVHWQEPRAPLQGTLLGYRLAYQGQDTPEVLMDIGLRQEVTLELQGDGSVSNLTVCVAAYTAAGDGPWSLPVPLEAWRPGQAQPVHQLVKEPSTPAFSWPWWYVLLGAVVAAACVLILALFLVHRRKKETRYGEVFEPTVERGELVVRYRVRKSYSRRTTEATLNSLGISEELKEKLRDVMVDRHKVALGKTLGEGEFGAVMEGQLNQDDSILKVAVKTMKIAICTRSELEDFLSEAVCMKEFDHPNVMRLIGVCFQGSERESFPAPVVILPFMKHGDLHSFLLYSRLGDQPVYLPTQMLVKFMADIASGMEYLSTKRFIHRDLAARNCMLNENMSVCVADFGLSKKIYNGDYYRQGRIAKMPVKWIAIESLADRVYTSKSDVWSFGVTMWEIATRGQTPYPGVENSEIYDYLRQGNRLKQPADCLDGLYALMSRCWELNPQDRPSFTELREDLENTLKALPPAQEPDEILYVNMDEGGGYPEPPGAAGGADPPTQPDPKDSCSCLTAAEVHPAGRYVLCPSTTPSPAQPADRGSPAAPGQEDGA
Chain of TrkA (P04629 33-796): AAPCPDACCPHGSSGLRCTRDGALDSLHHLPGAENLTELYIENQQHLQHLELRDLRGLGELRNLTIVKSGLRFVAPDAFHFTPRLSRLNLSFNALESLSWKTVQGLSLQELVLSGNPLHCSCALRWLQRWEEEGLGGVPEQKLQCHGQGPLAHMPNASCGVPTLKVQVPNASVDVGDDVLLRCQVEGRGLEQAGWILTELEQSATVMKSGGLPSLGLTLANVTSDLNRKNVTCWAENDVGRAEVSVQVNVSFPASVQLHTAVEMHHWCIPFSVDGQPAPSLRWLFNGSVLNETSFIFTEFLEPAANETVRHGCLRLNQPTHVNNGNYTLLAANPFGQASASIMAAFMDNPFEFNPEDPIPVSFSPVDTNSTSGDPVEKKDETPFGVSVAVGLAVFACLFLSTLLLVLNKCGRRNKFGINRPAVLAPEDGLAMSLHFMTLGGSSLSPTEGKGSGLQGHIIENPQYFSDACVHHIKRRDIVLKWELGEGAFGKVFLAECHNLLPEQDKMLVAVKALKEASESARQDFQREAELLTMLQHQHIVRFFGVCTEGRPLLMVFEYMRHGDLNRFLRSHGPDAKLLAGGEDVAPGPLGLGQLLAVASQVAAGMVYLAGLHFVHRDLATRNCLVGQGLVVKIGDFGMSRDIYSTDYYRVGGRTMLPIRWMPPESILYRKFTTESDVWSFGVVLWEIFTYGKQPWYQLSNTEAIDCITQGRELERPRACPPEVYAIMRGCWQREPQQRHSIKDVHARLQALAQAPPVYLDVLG
Chain of P70S6K (P23443 whole entry): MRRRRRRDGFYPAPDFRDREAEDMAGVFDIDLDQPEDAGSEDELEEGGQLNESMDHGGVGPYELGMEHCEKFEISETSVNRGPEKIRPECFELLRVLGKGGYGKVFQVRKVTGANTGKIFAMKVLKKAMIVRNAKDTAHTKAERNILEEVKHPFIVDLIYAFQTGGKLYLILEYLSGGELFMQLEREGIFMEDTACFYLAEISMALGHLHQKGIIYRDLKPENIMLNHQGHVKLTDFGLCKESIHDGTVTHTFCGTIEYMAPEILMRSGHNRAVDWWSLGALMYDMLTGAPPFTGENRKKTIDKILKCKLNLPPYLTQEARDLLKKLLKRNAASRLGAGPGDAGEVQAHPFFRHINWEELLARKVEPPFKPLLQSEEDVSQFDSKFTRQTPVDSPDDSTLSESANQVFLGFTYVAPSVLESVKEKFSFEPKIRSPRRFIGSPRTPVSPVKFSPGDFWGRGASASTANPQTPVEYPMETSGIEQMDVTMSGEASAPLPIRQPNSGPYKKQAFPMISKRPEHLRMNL

## Cn1cc(-c2[nH]c3cc(NC(=O)[C@H](N)C4CCCCC4)cc4c3c2C=NNC4=O)cn1 [Compound 1]
Bmx
  IC50: 233 nM
[1]
  EC50: 45 nM
Lck
  IC50: 396 nM
[2]
  MTD: 40 mg/kg
TrkA
  IC50: 1270 nM
PAR-1Ba
  IC50: 350 nM
PDK1
  IC50: 439 nM
Axl
  IC50: 117 nM
A431 tumor xenografts; [3]
  Median time to TVR = 4: 11.1 days
  Normalized Tumor Growth Delay: 3.75 days
  Tumor Growth Delay: 2.7 days
A431 tumor xenografts; [4]
  Median time to TVR = 4: 15.1 days
  Normalized Tumor Growth Delay: 7.75 days
  Tumor Growth Delay: 6.7 days
A431 tumor xenografts; [5]
  Median time to TVR = 4: 13 days
  Normalized Tumor Growth Delay: 5.65 days
  Tumor Growth Delay: 4.6 days
A431 tumor xenografts; [6]
  Median time to TVR = 4: 7.35 days
  Tumor Growth Delay: -1.05 days
A431 tumor xenografts; day 0, 2 Gy + Cmpd 1 15 mg/kg IP, Days 0-4
  mean tumor volume: 94.51 mm^3
A431 tumor xenografts; day 0, 3 Gy + Cmpd 1 15 mg/kg IP, Days 0-4
  mean tumor volume: 104.26 mm^3
A431 tumor xenografts; day 0, 4 Gy + Cmpd 1 15 mg/kg IP, Days 0-4
  mean tumor volume: 101.97 mm^3
A431 tumor xenografts; day 0, Cmpd 1 only, 15 mg/kg IP Days 0-4
  mean tumor volume: 104.23 mm^3
A431 tumor xenografts; day 2, 2 Gy + Cmpd 1 15 mg/kg IP, Days 0-4
  mean tumor volume: 145.53 mm^3
A431 tumor xenografts; day 2, 3 Gy + Cmpd 1 15 mg/kg IP, Days 0-4
  mean tumor volume: 149.88 mm^3
A431 tumor xenografts; day 2, 4 Gy + Cmpd 1 15 mg/kg IP, Days 0-4
  mean tumor volume: 150.81 mm^3
A431 tumor xenografts; day 2, Cmpd 1 only, 15 mg/kg IP Days 0-4
  mean tumor volume: 158.07 mm^3
A431 tumor xenografts; day 4, 2 Gy + Cmpd 1 15 mg/kg IP, Days 0-4
  mean tumor volume: 198.57 mm^3
A431 tumor xenografts; day 4, 3 Gy + Cmpd 1 15 mg/kg IP, Days 0-4
  mean tumor volume: 210.23 mm^3
A431 tumor xenografts; day 4, 4 Gy + Cmpd 1 15 mg/kg IP, Days 0-4
  mean tumor volume: 209.44 mm^3
A431 tumor xenografts; day 4, Cmpd 1 only, 15 mg/kg IP Days 0-4
  mean tumor volume: 242.46 mm^3
A431 tumor xenografts; day 7, 2 Gy + Cmpd 1 15 mg/kg IP, Days 0-4
  mean tumor volume: 255.23 mm^3
A431 tumor xenografts; day 7, 3 Gy + Cmpd 1 15 mg/kg IP, Days 0-4
  mean tumor volume: 200.48 mm^3
A431 tumor xenografts; day 7, 4 Gy + Cmpd 1 15 mg/kg IP, Days 0-4
  mean tumor volume: 307.93 mm^3
A431 tumor xenografts; day 7, Cmpd 1 only, 15 mg/kg IP Days 0-4
  mean tumor volume: 418.28 mm^3
A431 tumor xenografts; day 9, 2 Gy + Cmpd 1 15 mg/kg IP, Days 0-4
  mean tumor volume: 339.76 mm^3
A431 tumor xenografts; day 9, 3 Gy + Cmpd 1 15 mg/kg IP, Days 0-4
  mean tumor volume: 164.45 mm^3
A431 tumor xenografts; day 9, 4 Gy + Cmpd 1 15 mg/kg IP, Days 0-4
  mean tumor volume: 294.63 mm^3
A431 tumor xenografts; day 9, Cmpd 1 only, 15 mg/kg IP Days 0-4
  mean tumor volume: 580.35 mm^3
A431 tumor xenografts; day 11, 2 Gy + Cmpd 1 15 mg/kg IP, Days 0-4
  mean tumor volume: 401.96 mm^3
A431 tumor xenografts; day 11, 3 Gy + Cmpd 1 15 mg/kg IP, Days 0-4
  mean tumor volume: 210.35 mm^3
A431 tumor xenografts; day 11, 4 Gy + Cmpd 1 15 mg/kg IP, Days 0-4
  mean tumor volume: 487.78 mm^3
A431 tumor xenografts; day 11, Cmpd 1 only, 15 mg/kg IP Days 0-4
  mean tumor volume: 790.82 mm^3
A431 tumor xenografts; day 14, 2 Gy + Cmpd 1 15 mg/kg IP, Days 0-4
  mean tumor volume: 644.80 mm^3
A431 tumor xenografts; day 14, 3 Gy + Cmpd 1 15 mg/kg IP, Days 0-4
  mean tumor volume: 283.51 mm^3
A431 tumor xenografts; day 14, 4 Gy + Cmpd 1 15 mg/kg IP, Days 0-4
  mean tumor volume: 815.01 mm^3
A431 tumor xenografts; day 16, 3 Gy + Cmpd 1 15 mg/kg IP, Days 0-4
  mean tumor volume: 408.01 mm^3
A431 tumor xenografts; day 18, 3 Gy + Cmpd 1 15 mg/kg IP, Days 0-4
  mean tumor volume: 433.83 mm^3
A431 tumor xenografts; day 21, 3 Gy + Cmpd 1 15 mg/kg IP, Days 0-4
  mean tumor volume: 395.17 mm^3
A431 tumor xenografts; day 23, 3 Gy + Cmpd 1 15 mg/kg IP, Days 0-4
  mean tumor volume: 513.31 mm^3
Chk2
  Ki: 47 nM
P70S6K
  IC50: 61 nM
Rsk3
  IC50: 171 nM
MDA-MB-231 (Breast)
  IC50: 1400 nM
Rsk1
  IC50: 98 nM
Flt3
  IC50: 25 nM
PC-3 (Prostate)
  IC50: 1600 nM
Fgr
  IC50: 153 nM
Fms
  IC50: 10 nM
